Test results as given in patent US11480559B2, “Blood collection tube, reagent, and method for analyzing blood characteristics using same” (FUJIMORI KOGYO CO., LTD., priority 2016, dated 2022).

Legend:
Type in all cases: cell-based
[1] = tested on: mixed white thrombus formation; assay: Thrombogenic capacity (white thrombus formation) in microchip coated with collagen and tissue factor, device of FIG. 2; conditions: tube A; aprotinin 10 μg/mL added before blood collection; calcium chloride 12 mM and CTI 50 μg/mL; flow rate 10 μL/min
Method: A method for analyzing the mixed white thrombus formation capacity using a microchip B for analysis of a mixed white thrombus is described below with reference to FIG. 2. The example illustrated in FIG. 2 is a mode in which a blood coagulation inhibitor is added to blood that has passed through a channel. However, this is merely an example, and the microchip may be, of course, in a different mode.
A reservoir (blood storage container) 206 is connected in an inverted position to an inlet 204 of the microchip B, and a liquid transfer pump 207 is connected to the reservoir 206. To the liquid transfer pump 207, a pressure sensor 208 is connected.
As the liquid for a liquid transfer pump 207, a liquid having a specific gravity lower than that of blood, such as mineral oil or […] is used. This liquid is introduced using the liquid transfer pump 207 into a reservoir 206 in which blood is preliminarily filled, thereby overlaying the liquid on the blood. […] By measuring the inflow pressure of the liquid, the inflow pressure of the blood into the channel can be indirectly measured.
More specifically, mineral oil is injected from the liquid transfer pump 207 into the reservoir 206. […] By providing the narrow section, high-shear-stress-induced platelet aggregation can be monitored, and thrombus formation in atherothrombosis can be reproduced, which is preferred. […]

[2] = tested on: blood coagulation; assay: ROTEM measurement of blood collected in BD sodium citrate tube with added reagents; conditions: for blood coagulation (ROTEM): CTI 50 μg/mL, aprotinin 20 μg/mL
Method: (§1) To a blood sample collected in a sodium citrate blood collection tube manufactured by BD (containing 3.2% sodium citrate in an amount of 1/10 volume with respect to the blood), the following reagents were added to perform ROTEM measurement.
(2) Calcium chloride (final concentration, 12 mM) and CTI (final concentration, 50 μg/mL)
(3) Calcium chloride (final concentration, 12 mM), CTI (final concentration, 50 μg/mL), and aprotinin (final concentration, 20 μg/mL)
(4) Calcium chloride (final concentration, 12 mM), CTI (final concentration, 50 μg/mL), aprotinin (final concentration, 20 μg/mL), and danaparoid sodium (final concentration, 0.25 U/mL)
The results for (1), (2), (3), and (4) are shown from the left in this order (in the order of initiation of coagulation).
(1) STARTEM reagent (calcium chloride reagent)
(4) Calcium chloride (final concentration, 12 mM), CTI (final concentration, 50 μg/mL), aprotinin (final concentration, 20 μg/mL), and heparin sodium (Mochida Pharmaceutical Co., Ltd.; final concentration, 0.15 U/mL)

[3] = tested on: platelet thrombus formation; assay: Flow measurement of platelet thrombus formation in collagen-coated microchip, device of FIG. 1; conditions: blood collected in BD heparin blood collection tube, directly measured; 18 μL/min
Source text: First, a method for analyzing the platelet thrombus formation capacity using a microchip A for analysis of a platelet thrombus is described below with reference to FIG. 1. In the example illustrated in FIG. 1, two channels are provided in parallel. However, this is merely an example, and, of course, the microchip may have a single channel, or may be in a different mode.
Reservoirs (blood storage containers) 106 and 116 are connected in an inverted position to a first inlet 104 and a second inlet 114, respectively, of the microchip A, and liquid transfer pumps 107, and 117 are connected to the reservoirs 106 and 116. To the liquid transfer pumps 107 and 117, pressure sensors 108 and 118 are connected. […]
As the liquid for the liquid transfer pumps 107 and 117, a liquid having a specific gravity lower than that of blood, such as mineral oil or […] is used. […] By measuring the inflow pressure of the liquid, the inflow pressure of the blood into each channel can be indirectly measured. […]
Thrombus formation by platelets occurs when the blood passes through the reaction sections, and increases in the inflow pressure due to this thrombus formation can be observed. By detecting the patterns of these pressure increases using the pressure sensors, and comparing the detected patterns, blood properties, that is, the platelet thrombus formation capacity, can be evaluated. […]

[4] = tested on: blood coagulation; assay: ROTEM measurement, BD sodium citrate tube, calcium chloride, CTI, aprotinin, heparin sodium and prothrombin reagent (tissue factor); conditions: (1) no hemostatic agent; (2) NovoSeven 2 μg/mL; (3) TFPI 10 μg/mL; HemosIL RecombiPlasTin 0.04%
Method: as §1
(1) Calcium chloride (final concentration, 12 mM), CTI (final concentration, 50 μg/mL), aprotinin (final concentration, 20 μg/mL), heparin sodium (final concentration, 0.15 U/mL), and a prothrombin reagent (addition of HemosIL RecombiPlasTin (15 μg/mL) to a final concentration of about 0.04%)
(2) Calcium chloride (final concentration, 12 mM), CTI (final concentration, 50 μg/mL), aprotinin (final concentration, 20 μg/mL), heparin sodium (final concentration, 0.15 U/mL), NovoSeven (final concentration, 2 μg/mL), and a prothrombin reagent (addition of HemosIL RecombiPlasTin to a final concentration of 0.04%) […]

[5] = tested on: blood coagulation; assay: ROTEM measurement with STARTEM and EXTEM reagents (Comparative Example); conditions: (1) alone, (2) NovoSeven 2 μg/mL, (3) TFPI 10 μg/mL
Method: as §1
(1) STARTEM reagent and EXTEM reagent (trademark; a test reagent containing tissue factor as a major component)
(2) STARTEM reagent, EXTEM reagent, and NovoSeven (Novo Nordisk Pharma Ltd.; final concentration, 2 μg/mL)
(3) STARTEM reagent, EXTEM reagent, and TFPI (final concentration, 10 μg/mL)

Substance: aprotinin
- thrombogenic capacity in the presence of blood flow [1]: did not influence the data
- initiation of coagulation (ROTEM) ([2]; aprotinin 20 μg/mL together with calcium chloride 12 mM and CTI 50 μg/mL): suppressed initiation of blood coagulation

Substance: heparin
- pressure increase due to platelet thrombus formation [3]: hardly observed

Substance: danaparoid sodium
- blood coagulation (ROTEM) ([2]; danaparoid sodium 0.25 U/mL further added to calcium chloride 12 mM): complete suppression of blood coagulation

Substance: heparin sodium
- blood coagulation (ROTEM) ([2]; heparin sodium 0.15 U/mL further added to calcium chloride 12 mM): complete suppression of blood coagulation

Substance: Ac-FQSKpNVHVDGYFERLXAKL-NH2 [TFPI]
- order of coagulation (ROTEM) [4]: Coagulation occurred in the order of (2), (3), and (1)
- ROTEM waveform versus reagent alone [5]: showed the same waveform
